Counter-ions that a name gives are not always drawn.
What was measured:
[1] = target: T1, human alpha 1a adrenergic receptor (Homo sapiens, UniProt P35348); test: Alpha 1a Adrenergic Receptor Binding screening assay ([125I]-HEAT competition, membranes of stably transfected human alpha 1a cell line); conditions: human alpha 1a receptor, 100 pM [125I]-HEAT, room temperature, one hour
T1 sequence (P35348 1-466): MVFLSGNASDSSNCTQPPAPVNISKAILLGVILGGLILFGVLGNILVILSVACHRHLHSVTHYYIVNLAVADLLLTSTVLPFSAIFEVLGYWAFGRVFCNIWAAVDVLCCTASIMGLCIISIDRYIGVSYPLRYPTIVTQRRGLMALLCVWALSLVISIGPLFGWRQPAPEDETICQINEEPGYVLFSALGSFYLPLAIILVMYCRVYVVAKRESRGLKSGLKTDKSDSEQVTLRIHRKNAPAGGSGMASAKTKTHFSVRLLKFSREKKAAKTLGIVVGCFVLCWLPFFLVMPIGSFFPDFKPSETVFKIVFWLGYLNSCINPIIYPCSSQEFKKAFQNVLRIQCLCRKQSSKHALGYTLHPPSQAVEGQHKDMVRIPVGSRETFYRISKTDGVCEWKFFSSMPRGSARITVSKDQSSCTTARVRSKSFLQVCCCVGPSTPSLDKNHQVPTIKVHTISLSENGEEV
Procedure: Screening assay: Alpha 1a Adrenergic Receptor Binding
Membranes prepared from the stably transfected human alpha 1a cell line (ATCC CRL 11140) were used to identify compounds that bind to the human alpha 1a adrenergic receptor. These competition binding reactions (total volume=200 μl) contained 50 mM Tris-HCl pH. 7.4, 5 mM EDTA, 150 mM NaCl, 100 pM [^125 I]-HEAT, membranes prepared from the alpha 1a cell line and increasing amounts of unlabeled ligand. Reactions were incubated at room temperature for one hour with shaking. Reactions were filtered onto Whatman GF/C glass fiber filters with a Inotec 96 well cell harvester. Filters were washed three times with ice cold buffer and bound radioactivity was determined (Ki).

[2] = system: human alpha 1b and alpha 1d adrenergic receptors; test: Selective Binding assays ([125I]-HEAT competition, membranes of stably transfected human alpha 1d and alpha 1b cell lines), compared with alpha 1a; conditions: alpha 1a versus alpha 1b and alpha 1d
Procedure: Selective Binding assays Membranes prepared from stably transfected human alpha 1d and alpha 1b cell lines (ATCC CRL 11138 and CRL 11139, respectively) were used to identify compounds that selectively bind to the human alpha 1a adrenergic receptor. These competition binding reactions (total volume=200 μl) contained 50 mM Tris-HCl pH. 7.4, 5 mM EDTA, 150 mM NaCl, 100 pM [^125 I]-HEAT, membranes prepared from cell lines transfected with the respective alpha 1 subtype expression plasmid and increasing amounts of unlabeled ligand. Reactions were incubated at room temperature for one hour with shaking. Reactions were filtered onto Whatman GF/C glass fiber filters with a Inotec 96 well cell harvester. Filters were washed three times with ice cold buffer and bound radioactivity was determined (Ki).

| SMILES | alpha 1a Ki [1] | Ki [1] [µM] | selectivity in binding to alpha 1a receptors versus binding to the alpha 1b and alpha 1d receptors [2] |
| --- | --- | --- | --- |
| O=C(N[C@@H]1CCN(C2CCC(O)(c3ccccn3)CC2)C1)N1C(=O)OC[C@@H]1c1ccc(F)c(F)c1 (stereo partly drawn) [Example 20, (4S)-trans-4-(3,4-Difluorophenyl)-2-oxooxazolidine-3-carboxylic acid-[1-(4-hydroxy-4-pyridin-2-yl-cyclohexyl)-(3R)-pyrrolidin-3-yl]amide hydrochloride] | inactive | – | – |
| Cl.O=C(N[C@@H]1CCN([C@H]2CC[C@@H](c3ccccn3)CC2)C1)N1C(=O)OC[C@@H]1c1ccc(F)c(F)c1 [Example 12, (4S)-cis-4-(3,4-Difluorophenyl)-2-oxooxazolidine-3-carboxylic acid-[1-(4-pyridin-2-yl-cyclohexyl)-(3R)-pyrrolidin-3-yl]amide hydrochloride] | – | < 0.2 | at least 3 fold |
| NC(=O)[C@@H]1OC(=O)N(C(=O)N[C@@H]2CCN([C@H]3CC[C@H](c4ccccc4F)CC3)C2)[C@H]1c1ccc(F)c(F)c1 [Example 78, (4S,5R)-trans-4-(3,4-Difluorophenyl)-3-{1-[4-(2-fluorophenyl)cyclohexyl]-(3R)-pyrrolidin-3-ylcarbamoyl}-2-oxo-oxazolidine-5-carboxamide] | – | – | about 37 fold |
| COc1ccccc1[C@H]1CC[C@@H](N2CC[C@@H](NC(=O)N3C(=O)OC[C@@H]3c3ccc(F)c(F)c3)C2)CC1 [Example 16, (4S)-cis-4-(3,4-Difluorophenyl)-2-oxooxazolidine-3-carboxylic acid-{1-[4-(2-methoxyphenyl)-cyclohexyl]-(3R)-pyrrolidin-3-yl}amide hydrochloride] | – | ~0.8 | – |
